Experimental data taken from the METLIN SMRT retention time set (Domingo-Almenara et al. 2019).

Test: gradient 5% acetonitrile 3 min, to 50% in 2 min, to 85% in 15 min, held 3 min, 100 µL/min
Conditions: column: Zorbax Extend-C18 2.1 x 50 mm; eluents: water / acetonitrile, 0.1% formic acid
How it was run: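 The system's dead and dwell volumes were 40 μL and 900 μL, with a Zorbax Extend-C18 column (2.1 × 50 mm, 1.8 μm) run at 100 μL/min in water and acetonitrile containing 0.1% formic acid each. Pure standards were analyzed in mixtures of ~100 molecules by HPLC–quadrupole time-of-flight mass spectrometry in positive and negative ionization mode. Retention time was assigned from computationally picked, manually inspected adduct peaks.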

RP-LC retention time [s] | Structure (SMILES)
652 | CCCN(C)C(=O)c1c(C)oc2c1CN(C(=O)CC)CC2
828 | CCOC(=O)c1c(S(=O)(=O)N2CCC(C(=O)NC3CCCCC3)CC2)c(C)n(C)c1C
760 | CCc1ccc(NC(=O)C2CCN(C(=O)C3Sc4ccccc4NC3=O)CC2)cc1 (configuration not stated)
597 | CC(C)N1CCN(C(=O)c2sc3ncccc3c2-n2cccc2)CC1
722 | CCC(=O)NCc1csc(C2CCN(C(=O)c3ccc(Br)cc3)CC2)n1
711 | CCN1C(=O)c2cccnc2Sc2cc(NC(=O)C(C)C)ccc21
709 | CCC1CN(C(=O)N2CCC(C(=O)NCCCN3CCCC3=O)CC2)c2ccccc2O1 (configuration not stated)
1060 | Cc1ccc2c(c1)N(S(C)(=O)=O)CCC(C(=O)Nc1cccc(Br)c1)O2 (configuration not stated)
603 | CCCN1CCn2cc(C(=O)NC(C)c3ccccc3)nc2C1 (configuration not stated)
670 | COc1cccc(CNC(=O)C2CCCN(c3cc(=O)n(C)c(=O)n3C)C2)c1 (configuration not stated)
645 | Cc1ccc2c(Nc3cc(F)cc(F)c3)c(C(=O)N3CCSCC3)cnc2n1
696 | Cc1cc(C)n(Cc2ccc(C(=O)N3CCC(c4noc(-c5cccnc5)n4)C3)o2)n1 (configuration not stated)
720 | CCNC(=O)C1=CCN(C(=O)c2cc(C)cc(C)c2)CC1
934 | COc1ccc(Cl)cc1NC(=O)CN1C(=O)C2CCCCN2c2ccc(C(=O)N3CCCC3)cc21 (configuration not stated)
1050 | C=CCN1C(=O)COc2ccc(-c3nc(NC(=O)c4cc(OC)c(OC)c(OC)c4)sc3C)cc21
764 | CCNC(=O)CCc1nc2ccccc2n(CC(=O)Nc2ccc(C(=O)OCC)cc2)c1=O
579 | CCN1CCN(CCCNC(=O)CN2C(=O)C3CCCCN3c3ccc(C(=O)N(C)C)cc32)CC1 (configuration not stated)
567 | CCn1cc(CCN2CCC(C(=O)NC(C)C)CC2)c2cccnc21
1020 | Cc1noc(C)c1-c1ccc(S(=O)(=O)N2CCC(C)CC2)cc1
1030 | Cc1ccc(NC(=O)N2CCCC2c2nc(-c3ccccc3)no2)cc1C (configuration not stated)
738 | CCn1ccc(NC(=O)Nc2cccc(C)c2)n1
986 | Cc1ccc(Cn2c(=O)c(N3CCC(NC(=O)NC(C)C)CC3)nc3cccnc32)cc1
722 | CCCC(NC(=O)Cc1ccc(C)cc1)C(=O)Nc1nc2ccccc2[nH]1 (configuration not stated)
866 | CCc1nnc(-c2cc(C)n(CC(=O)Nc3ccc(Cl)cc3F)c2C)o1

Further lines, the molecule ahead of its results:

Structure (SMILES) | RP-LC retention time [s]
Cn1c(=O)sc2cc(S(=O)(=O)N3CCC(C(=O)N4CCCCC4)CC3)ccc21 | 764
CC(C)NC(=O)N1CCC(c2noc(-c3ccccn3)n2)C1 (configuration not stated) | 648
CC(C)CN1CCn2cc(S(=O)(=O)NCc3cc(F)cc(F)c3)cc2C1=O | 808
COC(=O)c1cc(C)nc2c1c(=O)n(Cc1ccccc1F)c(=O)n2Cc1ccco1 | 1070
OCCNCc1ccc(-c2ccc(Cl)cc2Cl)o1 | 642
Cc1onc2c(=O)n(CC(=O)N3CCN(c4ccccn4)CC3)nc(-c3ccc(Cl)cc3)c12 | 693
CCSc1nnc(NC(=O)c2nn(-c3ccc(F)cc3)cc2OC)s1 | 881
CCn1ccnc1N1CCN(C(=O)c2ccccc2C(F)(F)F)CC1 | 555
CC(C)c1nc(-n2cccc2)sc1C(=O)NCCc1ccccc1 | 1190
CC(C)CCNC(=O)C1(C)CN(S(=O)(=O)c2ccccc2)CC(=O)N1c1cccc(F)c1 (configuration not stated) | 953
COCCN1C(=O)c2ccccc2C(C(=O)N2CCN(c3ccccn3)CC2)C1c1cccs1 (configuration not stated) | 621
Cc1ccc(C)c(-c2coc(-c3ccc(NC(=O)NCc4ccc(F)cc4)cc3)n2)c1 | 1190
O=C(NCCCN1CCCC1)c1cc2n(n1)CCCN(Cc1ccc(F)cc1)C2=O | 619
CCSc1ccccc1C(=O)N1CCN(CCn2cccn2)CC1 | 568
Clc1ccccc1-c1nc(-c2ccc(-n3ccnc3)nc2)no1 | 749
CCc1ccccc1NS(=O)(=O)c1cn(CC(C)C)c2ncccc12 | 1050
COc1ccc(OC)c(NS(=O)(=O)c2ccc3c(c2)-c2oncc2CO3)c1 | 889
COc1ccc(-c2cn3c(CC(=O)Nc4nccs4)csc3n2)cc1OC | 653
Clc1ccccc1CNc1nnc(-c2nc(C3CC3)no2)c2ccccc12 | 1010
COc1ccc(-c2nnc(-c3ccccc3)o2)cc1S(=O)(=O)NC(C)C | 870
CCN1C(=O)c2cccnc2Sc2cc(CNC(=O)c3ccccc3F)ccc21 | 702
COc1ccccc1NC(=O)N1CCC(CNC(=O)C(=O)Nc2cccnc2)CC1 | 591

Structure (SMILES) | RP-LC retention time [s]
CCCn1c(CCc2cccc(NS(=O)(=O)c3cnn(CC)c3)c2)nc2ccccc21 | 675
CC(C)CN(Cc1cccnc1)C1CN(S(=O)(=O)c2cccnc2)C1 | 645
O=C(c1ccc(Br)cc1)N1CCN(c2nc(CN3CCCCC3)cs2)CC1 | 655
COc1cccc(-n2cc(C(=O)OCc3cc(=O)n4ccccc4n3)c3ccccc3c2=O)c1 | 866
Cn1nccc1C(=O)Nc1c(-c2ccccc2)nc2sc(N3CCCCC3)nn12 | 678
Cc1oc(-c2ccc(NC(=O)c3ccc(Cl)s3)cc2)nc1Cn1cccn1 | 980
CCOC(=O)c1ccccc1NC(=O)C1=Cc2ccccc2OC=C1 | 1410
O=C1CC(CNS(=O)(=O)c2cccc(C(F)(F)F)c2)CN1c1ccc(Cl)cc1 (configuration not stated) | 893
O=S(=O)(c1cccc2cccnc12)N1CCc2ccccc2C1 | 876
O=C(COc1ccc(F)cc1)NCC1(O)CCCC1 | 667
O=C(Cn1c(=O)c2cc(C3CC3)nn2c2ncccc21)NCc1cccs1 | 711
CC(C)=CCC/C(C)=C\C(N)=O | 816
COc1cccc(NC(=O)c2sc(C)nc2-c2ccc([N+](=O)[O-])cc2)c1 | 849
CCc1ccc(-n2c(CN3CCN(C(=O)NCCCOC)CC3)nc3cccnc32)cc1 | 634
COc1cc([C@@H]2c3cc4c(cc3[C@H](O)[C@@H](CO)[C@@H]2C(=O)NCc2ccc(F)cc2)OCO4)cc(OC)c1OC | 720
Cc1cc(-c2nnc(-c3ccccc3)o2)c(C)n1CC(=O)NCc1ccco1 | 826
O=C(CCNc1cnc2cnccn12)NCc1ccc(C(F)(F)F)cc1 | 611
COc1ccc(S(=O)(=O)N2CCC(Cc3nncn3-c3ccccc3)CC2)cc1 | 775
c1ccc(Cn2cnnc2C2CCCN(Cc3cccs3)C2)cc1 (configuration not stated) | 592
NC(=O)c1cc(Br)cc(C2CCCCC2)c1O | 1220
Cc1cc(S(=O)(=O)Nc2ccc(Cn3cncn3)cc2)ccc1F | 743
